Laboratory results published in patent US20040033982A1, “Viral inhibition by n-docosanol” (priority 2001, published 2004).
Like-named read-outs stand apart in the source and are kept apart here.

Experiments:
[1] = test system: acyclovir-resistant HSV-2; assay: Plaque formation by acyclovir-resistant HSV-2 in Vero cells; type: cell-based; settings: FIG. 7, Panel B
Procedure: FIG. 7 depicts data showing that n-docosanol inhibits acyclovir-resistant HSV-2. Vero cells were cultured in 35-mm wells (6×10^5 cells per well) in medium alone (=none) or in the presence of the indicated concentration of acyclovir, n-docosanol-Pluronic F-68 suspension or control suspension (Pluronic F-68 only). The cultures were inoculated 24 hours later with 150 PFU of either wild-type HSV-2 or an acyclovir-resistant laboratory isolate from the wild-type HSV-2 that was plaque purified and passaged in 20 μg/ml acyclovir 44 hours later, the plates were incubated, fixed, stained, and scored for numbers of plaques. The data presented are means of plaques scored from duplicate cultures. The percent inhibition observed in cultures treated with acyclovir or n-docosanol relative to untreated control cultures is denoted in parentheses.

HSV = HSV antigens by ELISA, ICP4 immunofluorescence, secondary plaque assay; type: cell-based
Source text: Thus, the amounts of both HSV core and envelope protein antigens detectable by ELISA, as well as the numbers of infected cells expressing the intranuclear HSV-specific immediate-early protein, ICP4, by immunofluorescence, are reduced by more than 80%. Finally, the replication of infectious virions as measured in secondary plaque assay cultures is markedly diminished by 99% or more in n-docosanol treated cells.

Friend virus = Friend virus induced leukemia and viremia in mice; type: in vivo, BALB/c mice; settings: intravenous, day of virus and once daily for the next 3 days
Procedure: FIG. 12 depicts data showing that n-docosanol inhibits in vivo Friend virus induced leukemia and viremia. Adult BALB/c mice were injected intravenously with 75 spleen focus-forming units of FV. Treated groups were injected intravenously with the indicated doses of n-docosanol or Pluronic vehicle alone on the same day as virus inoculation and once daily for the next 3 days. After 10 days, half of the animals in each group were sacrificed and examined for leukemic foci in their spleens (panel A). The remaining mice were retained 10 more days and bled for viremia determinations (panel B). Viremia was measured using the X-C plaque assay. Briefly, primary fibroblast cultures were derived by digestion of 14-day BALB/c embryos with trypsin and culturing in DMEM plus 10% fetal calf serum. After 72 hours, the cells were transferred into 16-mm dishes (10^5/well), pretreated with 5 μg/ml polybrene and then infected with 75 X-C plaque-forming units of Friend virus stock or dilution of test plasma. After incubation for 7 days, the cultures were irradiated and overlaid with X-C cells (3×10^5/well). Three days later, the cultures were washed, stained, and scored for plaques of multinucleated giant cells. The data presented are geometric means and standard errors of splenic foci or X-C plaque-forming units derived from three animals per group. […]

HSV-1 or HSV-2 = assay: Inhibition of HSV production and plaque formation in Vero cells; type: cell-based
Procedure: Cultured cells were placed in 35-mm wells (2 ml; 3×10^5 cells/ml) in DMEM containing L-glucamine, pennstrep (cDMEM) and supplemented with 5% FCS. n-Docosanol or the corresponding control vehicle (lacking n-docosanol) was added at the outset of the culture. All cultures were then inoculated with 175 p.f.u. of HSV-1 or HSV-2.
The cultures were incubated for an additional 42-44 h, washed once with fresh medium, stained and fixed (the staining/fixative consists of 1.25 mg/ml of carbol-fuchsin plus 2.5 mg/ml of methylene blue in methanol) and then scored for HSV-induced plaques using a dissecting microscope (10× magnification). Thc data are averages of duplicate cultures, which varied by no more than 5-10%.

HSV-2 (333) = assay: Entry of HSV-2 (333) into CHO-IEβ8 cells (beta-galactosidase, OD600); type: cell-based; settings: for inhibition at 30000 µM: Human alphaherpesvirus 2, 30 mM
Procedure: CHO-IEβ8 cells were seeded into 24-well plates. After cell attachment, heparin, n-docosanol-vehicle, vehicle alone, or no agent (control) was added. Five to six hours after infection, the cells were processed, X-gal was added, and the absorbance at 600 nm was determined.
Twenty-four hours before infection, cultured cells were seeded into 24-well (16-mm) plates at 2.5×10^6 cells/well in 0.5 ml cDMEM supplemented with 10% fetal bovine serum (FES). After cell attachment (4-6 h later) heparin, n-docosanol-surfactant, or surfactant alone was added to the cells in 0.5 ml DMEM/10% FES. The agents were dissolved in the medium at two times the desired final concentration. For infection, 0.7 ml of medium was removed from each well and 25 μl of virus suspension was added to the remaining 0.3 ml to give a virus dose of at least 20 p.f.u./cell The plates were rocked at 37° C. for 3 h and then put in a 37° C. CO2 incubator for another 2-3 h.
At 5-6 h after infection, the cells were fixed with PES containing 2% formaldehyde and 0.2% glutaraldehyde, washed, then permeabilized with 0.02% NP-40, 0.01% deoxycholate and 2 mM MgCl2. After washing again, 5-bromo-4-chloro-3indolyl-β-galactopyranoside (X-gal) was added for development of blue product. The substrate was removed and replaced with 50% glycerol. Plates were photographed. To quantify the amount of color in each well the glycerol was removed from all wells that were then washed 3× with distilled H2O. DMSO (0.6 ml) was added to solubilize the dye and, after transferring 100 μl of each sample well from the 24-well plate to a 96-well plate, the OD600 was recorded using a 96-well plate reader.
n-Docosanol inhibits HSV-2(333) infectivity of CHO-IEβ8 cells. To further narrow the point of inhibition of viral entry in n-docosanol-treated cells, the effects of the drug on entry of HSV-2 into CHO-IEβ8 cells selected by transfection of CHO cells with a plasmid carrying a Pur selectable marker and lacZ under control of the HSV-1 ICP4 promoter was investigated. In this cell line, β-gal expression is induced upon entry of HSV virion proteins into the cell, an event which occurs immediately upon viral entry into the cellular cytoplasm and which is not dependent on virion transport to the nucleus.

For `CCCCCCCCCCCCCCCCCCCCCCO` [n-docosanol], the “inhibition of plaque formation” value [1] was “inhibited”, the “reduction of HSV core and envelope protein antigens detectable by ELISA” value (HSV) was “more than 80%” and the “reduction of numbers of infected cells expressing ICP4 by immunofluorescence” value (HSV) was “more than 80%”. For the same compound, the “reduction of replication of infectious virions in secondary plaque assay cultures” value (HSV) was no less than 99%, the “development of leukemic foci in spleens” value (Friend virus; day 10) was “very clear dose-related inhibitory affect” and the development of viremia (Friend virus; day 20) was “very clear dose-related inhibitory affect”. For the same compound, the “ID50 for inhibition of HSV production” value (HSV-1 or HSV-2) was 4 mM, the “ID50 for inhibition of plaque formation” value (HSV-1 or HSV-2) was 9 mM and the “maximal observed inhibition in comparison to untreated cells” value (HSV-2 (333)) was “approximately 75%”. For the same compound, the “reduction in the expression of β-galactosidase” value (HSV-2 (333)) was no more than 80%, the inhibition at 30000 µM (HSV-2 (333); read-out: inhibition of color production compared to Tetronic 908-treated cells) was 55% and the inhibition at 30000 µM (HSV-2 (333); read-out: inhibition of color production compared to untreated cells) was 40%.
